Results: patent publication US8962616B2, “Heterocyclic substituted hexahydropyrano[3,4-d][1,3]thiazin-2-amine compounds” (Pfizer Inc., priority 2012, dated 2015)

Key:
BACE1 enzyme = BACE1 enzyme (Homo sapiens (Human), UniProt P56817); test: BACE1 Cell-Free Assay (fluorescence polarization, synthetic APP substrate); assay type: biochemical; settings: geometric mean of 2-7 determinations (values marked b: single determination)
Excerpt: This assay measures the inhibition of the beta-secretase enzyme as it cleaves a non-native peptide.
A synthetic APP substrate that can be cleaved by beta-secretase having N-terminal biotin and made fluorescent by the covalent attachment of Oregon Green at the Cys residue is used to assay beta-secretase activity in the presence or absence of the inhibitory compounds. […] The BACE1 enzyme is affinity purified material from conditioned media of CHO-K1 cells that have been transfected with a soluble BACE construct (BACE1deltaTM96His). Compounds are incubated in a ½ log dose response curve from a top concentration of 100 μM with BACE1 enzyme and the biotinylated fluorescent peptide in 384-well black plates (Thermo Scientific #4318). BACE1 is at a final concentration of 0.1 nM with a final concentration of peptide substrate of 150 nM in a reaction volume of 30 μL assay buffer (100 mM sodium acetate, pH 4.5 (brought to pH with acetic acid), and 0.001% Tween-20). Plates are covered and incubated for 3 hours at 37° C. The reaction is stopped with the addition of 30 μL of 1.5 μM Streptavidin (Pierce, #21125). After a 10 minute incubation at room temperature, plates are read on a PerkinElmer Envision for fluorescent polarization (Ex485 nm/Em530 nm). The activity of the beta-secretase enzyme is detected by changes in the fluorescence polarization that occur when the substrate is cleaved by the enzyme.

[1] = tested on: H4 human neuroglioma cells over-expressing the wild-type human APP695; test: sAPPβ Whole-Cell Assay (in vitro sAPPb assay, ELISA); assay type: cell-based; settings: 18 hours, geometric mean of 2-7 determinations (values marked b: single determination)
Method: Whole Cell-Free Assay (In Vitro sAPPb Assay):
H4 human neuroglioma cells over-expressing the wild-type human APP695 are treated for 18 hours with compound in a final concentration 1% DMSO. sAPPβ levels are measured using TMB-ELISA with capture APP N-terminal antibody (Affinity BioReagents, OMA1-03132), wild-type sAPPβ specific reporter p192 (Elan), and tertiary anti rabbit-HRP (GE Healthcare).

BACE2 enzyme = BACE2 enzyme (Homo sapiens (Human), UniProt Q9Y5Z0); test: BACE2 Cell-free Assay (fluorescence polarization, synthetic substrate); assay type: biochemical; settings: single determination
Chain of BACE2 enzyme (Q9Y5Z0 63-518): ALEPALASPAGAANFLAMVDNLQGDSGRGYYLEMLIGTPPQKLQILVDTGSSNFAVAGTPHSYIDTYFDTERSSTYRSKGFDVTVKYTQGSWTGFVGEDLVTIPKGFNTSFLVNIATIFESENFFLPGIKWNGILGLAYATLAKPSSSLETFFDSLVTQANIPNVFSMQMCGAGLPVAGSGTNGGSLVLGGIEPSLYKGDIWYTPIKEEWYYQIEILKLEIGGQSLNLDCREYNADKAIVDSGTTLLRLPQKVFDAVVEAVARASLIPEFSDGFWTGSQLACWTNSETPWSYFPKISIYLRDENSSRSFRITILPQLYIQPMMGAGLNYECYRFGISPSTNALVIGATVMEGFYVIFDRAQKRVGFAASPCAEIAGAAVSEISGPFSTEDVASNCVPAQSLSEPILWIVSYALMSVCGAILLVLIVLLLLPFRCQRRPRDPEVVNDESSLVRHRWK
Method: This assay measures the inhibition of the BACE2 enzyme as it cleaves a non-native peptide. A synthetic substrate that can be cleaved by BACE2 having N-terminal biotin and made fluorescent by the covalent attachment of Oregon Green at the Cys residue is used to assay BACE2 activity in the presence or absence of the inhibitory compounds. The substrate is Biotin-[…]-C(Oregon green)-KK-OH. The BACE2 enzyme is available from Enzo Life Sciences (Cat # BML-SE550). Compounds are incubated in a ½ log dose response curve from a top concentration of 100 μM with BACE2 enzyme and the biotinylated fluorescent peptide in 384-well black plates (Thermo Scientific #4318). BACE2 is at a final concentration of 2.5 nM with a final concentration of peptide substrate of 150 nM in a reaction volume of 30 μL assay buffer (100 mM Sodium Acetate, pH 4.5 (brought to pH with acetic acid), and 0.001% Tween-20). Plates are covered and incubated for 3 hours at 37° C. The reaction is stopped with the addition of 30 μL of 1.5 μM Streptavidin (Pierce, #21125). After a 10 minute incubation at room temperature, plates are read on a PerkinElmer Envision for fluorescent polarization (Ex485 nm/Em530 nm). The activity of the beta-secretase enzyme is detected by changes in the fluorescence polarization that occur when the substrate is cleaved by the enzyme.

Chain of BACE1 enzyme (P56817 46-457): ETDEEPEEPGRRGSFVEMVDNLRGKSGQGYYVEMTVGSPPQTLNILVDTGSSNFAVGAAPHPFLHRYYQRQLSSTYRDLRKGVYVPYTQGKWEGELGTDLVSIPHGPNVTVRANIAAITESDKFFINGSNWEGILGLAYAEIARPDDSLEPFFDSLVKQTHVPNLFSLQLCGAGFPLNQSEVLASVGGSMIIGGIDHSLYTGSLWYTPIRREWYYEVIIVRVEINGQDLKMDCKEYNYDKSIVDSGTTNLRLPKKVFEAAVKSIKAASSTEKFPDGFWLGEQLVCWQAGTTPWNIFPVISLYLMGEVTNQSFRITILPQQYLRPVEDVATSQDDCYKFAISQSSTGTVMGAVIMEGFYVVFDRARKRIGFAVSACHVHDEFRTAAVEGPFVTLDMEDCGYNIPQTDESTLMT

IC50 (BACE1 enzyme) | IC50 ([1]; Homo sapiens) | IC50 (BACE2 enzyme) | Molecule | IC50 [1]
390 nM | 28 nM | 695 nM | NC1=N[C@@]2(c3ccc(F)cc3F)CO[C@@H](c3ccncn3)C[C@H]2CS1 [Example 18, (4aR,6R,8aS)-8a-(2,4-difluorophenyl)-6-(pyrimidin-4-yl)-4,4a,5,6,8,8a-hexahydropyrano[3,4-d][1,3]thiazin-2-amine] | –
473 nM | – | 1150 nM | Cc1cnc([C@H]2C[C@H]3CSC(N)=N[C@@]3(c3ccc(F)cc3F)CO2)o1 [Example 5, (4aR,6R,8aS)-8a-(2,4-Difluorophenyl)-6-(5-methyl-1,3-oxazol-2-yl)-4,4-a,5,6,8,8a-hexahydropyrano[3,4-d][1,3]thiazin-2-amine] | 23 nM

Molecule | IC50 (BACE1 enzyme) | IC50 ([1]; Homo sapiens) | IC50 (BACE2 enzyme) | IC50 [1]
(4aR,6R,8aS)-8a-(2,4-Difluorophenyl)-6-(5-methyl-1,3,4-oxadiazol-2-yl)-4,4-a,5,6,8,8a-hexahydropyrano[3,4-d][1,3]thiazin-2-amine [Example 17] | 301 nM | – | 5560 nM | 10 nM
